This is an account of results in PMC7824769, “Identification of Small Molecules Blocking the Pseudomonas aeruginosa Type III Secretion System Protein PcrV” (Biomolecules, 2021).

The test has as its system J774 cells infected with P. aeruginosa strain PAK. Kind of test: cells. Type of test: cell-based, Pseudomonas aeruginosa. The settings on record: for Anti-virulence efficacy in the infection assay (in words): 25-200 µM; for viability at 25 µM / viability at 50 µM / viability at 100 µM / viability at 200 µM: Pseudomonas aeruginosa; for viability at 25 µM: J774, compound 25 µM; for viability at 50 µM: J774, compound 50 µM; for viability at 100 µM: J774, compound 100 µM; for viability at 200 µM: J774, compound 200 µM. As to the method:
The cell viability assay was performed essentially as described before. J774 cells were seeded in 96-well micro-titer plates (Nunc), 100 µL/well, to a final number of 50,000 cells/well in Dulbecco’s modified Eagle’s medium (DMEM) with glutamax (Merck) supplemented with 10% fetal calf serum (FCS) and 3 µg/mL gentamicin and incubated for 16-18 h. Overnight cultures of the P. aeruginosa strains PAK and PAKpcrV [10] were grown in Luria Broth (LB) on a rotary shaker at 220 rpm at 37 °C. Prior to infection, the bacteria were diluted 1:10 in DMEM + glutamax and incubated for 1 h at 37 °C (shaking). The J774 cells were washed once with PBS, then 30 µL of DMEM with glutamax and 10% FCS supplemented with the potential binders at concentrations of 50, 100, 200, and 400 µM were added to the wells in triplicates. The infection was initiated by adding 30 µL of the diluted bacterial solutions (where the OD600 had been diluted to 0.0008) to each well to initiate infection. This infection results in a final bacterial concentration of OD600 = 0.0004 and a multiplicities of infection (MOI) of approximately 8, with final concentrations of the compounds at 25, 50, 100, and 200 µM in 60 µL of DMEM + glutamax and 5% FCS. In the primary screening, the compounds were run at one concentration (100 µM) in duplicates. As an infection control, the wild-type strain PAK with 1% DMSO was added, and as a positive control, PAKpcrV with 1% DMSO was added into four wells each. After 3 h and 30 min, 10 µL of UptiBlue Viable Cell Counting Kit (Interchime, France) was added to all wells. The infection was followed under the light microscope and the fluorescence (excitation 535 nm and emission 595 nm) was measured at 4, 5, and 6 h in a microplate reader (Synergy™ H4, Biotek). The results were calculated as percentage of living cells compared to uninfected control, where the uninfected control was set to 100% living cells and the infected control was set to 0% living cells. As a control, compounds were added to uninfected cells in a parallel experiment and viability was calculated as above to screen for cell toxicity. A compound was considered toxic if the viability was <80% of the uninfected control after 6 h of incubation and if a visual change of cell morphology was observed by microscopy. Z’ was calculated for each plate to ensure good quality throughout the screening. Only results from plates with a Z’ > 0.4 were counted. Standard deviation was calculated with Gaussian approximation when appropriate and shown as error bars in Figure 3C and Figure 4A.
The T3SS is important for P. aeruginosa infection of eukaryotic cells, and a T3SS activator mutant or a mutant lacking the T3SS tip protein PcrV are not able to infect eukaryotic cells. The macrophage cell line, J774, was infected with the wild-type P. aeruginosa strain PAK, and the potential PcrV binders were added to the wells at a final concentration of 100 µM to screen for inhibition of infection. The T3SS-mediated cytotoxic effect on the eukaryotic cells was measured by using a viability staining method (Uptiblue, Interchim), and the results were measured after 4, 5, and 6 h of infection. The pcrV-mutant (PAKpcrV), which is not able to infect macrophages due to deletion of the PcrV protein, was used as a control.

[1] abbreviates: uninfected control = 100%, infected control = 0%, read-out: Viability Assay (% of Uninfected Control) 25 µM.
Setting [2] is: uninfected control = 100%, infected control = 0%, read-out: Viability Assay (% of Uninfected Control) 50 µM.
Where [3] appears, read: uninfected control = 100%, infected control = 0%, read-out: Viability Assay (% of Uninfected Control) 100 µM.
[4] abbreviates: uninfected control = 100%, infected control = 0%.

Like-named read-outs stand apart in the source and are kept apart here. Where only a bound is given, the exact number is not on record here.

As a reminder, the viability is a read-out of living cells in per cent, often relative to untreated cells. With `Cc1c(Br)ccc(OC[C@@H]2C[C@H]2C(=O)O)c1C` (relative stereo) [Compound 32], the “Anti-virulence efficacy in the infection assay (in words)” value is “as efficacious as or better than H1”. For the same compound, under setting [1], the viability at 25 µM is 22%. Moreover, under setting [2], the viability at 50 µM was 21%. Further, the viability at 100 µM under setting [3] is 33%. Also, the viability at 200 µM under setting [4] was at most 38%.
In the same order, the values of `Cc1c(Br)ccc(OC[C@@H]2C[C@@H]2C(=O)O)c1C` (relative stereo) [Compound 33] are “as efficacious as or better than H1”, 24%, 24%, 38% and at most 38%.
As to `Cc1c(Br)ccc(OCCCC(=O)O)c1C` [Compound H1], the viability at 25 µM reads like this: (one representative experiment, read-out: Macrophage Viability, wt+25 µM (Figure 3C)) -4%; under setting [1], 12%. Besides, the viability at 50 µM came to 19% (one representative experiment, read-out: Macrophage Viability, wt+50 µM (Figure 3C)) and 20% under setting [2]. Besides, the viability at 100 µM (one representative experiment, read-out: Macrophage Viability, wt+100 µM (Figure 3C)) came to 42% and the viability at 100 µM under setting [3] amounted to 27%. In addition, the viability at 200 µM under setting [4] was 28%.
